Results as given in patent US9266911B2, “Camptothecin derivative, and preparation method thereof, and pharmaceutical composition and application” (priority 2011, dated 2016).
Converted amounts (≈) assume the structure as drawn. “And” between values parts separate entries of the source, which are not always exact repeats. Equal entries are not always repeated. Where two headings read alike, the source gives them in different places. Blank lines part the entries; values can stand above or below the compound they belong to.

Assays:
[1] = test system: HCT116 (colon cancer) cells; experiment: CellTiter-Glo cell viability assay, HCT116 cells; format: cell-based; conditions: for viability at 0.1 µM / viability at 1 µM / viability at 10 µM: Homo sapiens, read-out: HCT116 cell viability after drug treatment for 48 hours
Procedure: (§1) Using the CellTiter-Glo kit provided by Promega Corporation, cell viability assay was performed on cancer cell lines to evaluate the ability of a compound to kill cancer cells in the in-vitro experiments. The kit measures the ATP levels by an enzymatic Luciferase assay. Normal viable cells will produce a certain level of ATP in metabolism. The enzymic reaction between the ATP product and the luciferase will emit a certain level of luminescent signal, which is captured by a luminometer and recorded as a certain luminescent read. […] When using this method to evaluate the anti-cancer activity of a compound, a certain concentration of an anti-cancer drug is added to the same amount of viable cancer cells, and the luminescent signal reading is acquired at a certain time point via CellTiter-Glo kits. […] Detailed procedure is as follows: a certain amount of small cell lung cancer cells (ATCC catalog No. H446), breast cancer cells (ATCC catalog No. MDAMB231) or colon cancer cells (ATCC catalog No. HCT116) are seeded in 96 wells with the same cell-culture medium, then respectively treated with WQ1001 and other anti-cancer drugs for a time course of 24, 48, and 72 hours. At the respective time points, the cancer cells are mixed with CellTiter-Glo reagents for 1 hour and the corresponding luminescent signals are recorded. Since the luminescent signal reading is proportional to the amount of viable cancer cells, the luminescent signal reading can be translated into the amount of viable cancer cells correspondingly. The cell livability rate is obtained by dividing the amount of viable cancer cells after treated with a certain concentration of anti-cancer drug by the amount of viable cancer cells of the Control Group which are not treated with the drug.

[2] = test system: human multiple myeloma NCI-H929 nude mouse xenograft; experiment: In vivo antitumor efficacy, NCI-H929 nude mouse xenograft model; conditions: 10 mg/kg (Table 23), intraperitoneal
Procedure: The human multiple myeloma NCI-H929 cells were grafted to nude mice. […] Two days after tumor cell implantation, the drugs were administered by intraperitoneal injection once every 4 days for a total of 3 injections (on Day 2, 6, 10 after cancer cell implantation). The body weight was measured every 2 days.

[3] = test system: human small cell lung cancer NCI-H446 nude mouse xenograft; experiment: In vivo antitumor efficacy, NCI-H446 nude mouse xenograft model
Procedure: The drugs were administered by intravenous injection.
WQ1001 was administered by I.V. injection once every other day for 3 consecutive times, followed by 7 days' rest without drug administration, then one more circle was performed, for a total of 6 times of administration.

[4] = test system: H446 (small cell lung cancer) cells; experiment: CellTiter-Glo cell viability assay, H446 cells; format: cell-based, human; conditions: for viability at 10 µM / viability at 0.1 µM / viability at 1 µM: Homo sapiens, NCI-H446
Procedure: as §1

[5] = test system: MDAMB231 (breast cancer) cells; experiment: CellTiter-Glo cell viability assay, MDAMB231 cells; format: cell-based; conditions: 48 hours; for viability at 0.1 µM / viability at 1 µM / viability at 10 µM: Homo sapiens, read-out: MDAMB231 cell viability after drug treatment; for viability at 0.1 µM: MDA-MB-231, 0.1 μM; for viability at 1 µM: MDA-MB-231, 1.0 μM; for viability at 10 µM: MDA-MB-231, 10 μM
Procedure: as §1

Water-solubility = format: physicochemical; conditions: for solubility: water
Procedure: (§2) Table 15 lists comparison of properties between the representative compounds of the present invention and several existing CPT derivatives. In the test, the lactone ring stability was characterized by lactone ring conservation rate measured by HPLC (liquid chromatogram) after placing the test compounds in buffer solution of pH 7.4. The anticancer activity was characterized by viability of H446 cancer cells at 10 μM drug concentration. From the Table, one can learn the differences in water-solubility, lactone ring stability and toxicology of the compounds of the present invention.

[6] = Lactone ring stability (lactone ring conservation rate by HPLC in pH 7.4 buffer); format: physicochemical; conditions: lactone ring conservation rate by HPLC after placing in buffer solution of pH 7.4
Procedure: as §2

[7] = test system: human colon cancer HT-29 nude mouse xenograft; experiment: In vivo antitumor efficacy, HT-29 nude mouse xenograft model; conditions: 35 mg/kg
[8] = test system: human breast cancer MCF-7 nude mouse xenograft; experiment: In vivo antitumor efficacy, MCF-7 nude mouse xenograft model; conditions: 35 mg/kg
human serum album = human serum album (Homo sapiens, UniProt P02768); conditions: physiological condition; cited from earlier work
Chain of human serum album (P02768 25-609): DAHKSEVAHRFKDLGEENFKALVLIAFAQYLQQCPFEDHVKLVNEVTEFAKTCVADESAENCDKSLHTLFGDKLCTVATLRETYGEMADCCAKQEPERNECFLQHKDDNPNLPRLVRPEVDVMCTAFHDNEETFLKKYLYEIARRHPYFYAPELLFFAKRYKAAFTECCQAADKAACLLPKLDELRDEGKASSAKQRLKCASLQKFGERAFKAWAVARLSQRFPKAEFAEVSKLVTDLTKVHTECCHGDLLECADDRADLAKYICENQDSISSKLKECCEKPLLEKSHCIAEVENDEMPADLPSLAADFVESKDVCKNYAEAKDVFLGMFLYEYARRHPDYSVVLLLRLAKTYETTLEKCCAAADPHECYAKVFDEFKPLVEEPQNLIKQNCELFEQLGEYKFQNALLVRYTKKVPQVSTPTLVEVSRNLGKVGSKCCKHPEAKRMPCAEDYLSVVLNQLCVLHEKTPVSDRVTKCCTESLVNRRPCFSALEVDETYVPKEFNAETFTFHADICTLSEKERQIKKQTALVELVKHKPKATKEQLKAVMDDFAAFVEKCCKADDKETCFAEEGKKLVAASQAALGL

[9] = topotecan 10 mg/kg i.v., D0, 4, 7, 11, 14, 17, D22
[10] = viability of H446 cancer cells at 10 μM drug concentration (Table 15)
[11] = viability of H446 cancer cells at 10 μM drug concentration (Table 15), read-out: Cancer cell viability
[12] = H446 cells, 0.1 μM, 48 hours, read-out: H446 cell viability after drug treatment for 48 hours
[13] = H446 cells, 1.0 μM, 48 hours, read-out: H446 cell viability after drug treatment for 48 hours
[14] = H446 cells, 10 μM, 48 hours, read-out: H446 cell viability after drug treatment for 48 hours

Compound: Topotecan
- HCT116 cell viability after drug treatment for 48 hours ([1]; 0.1 μM): 26%
- HCT116 cell viability after drug treatment for 48 hours ([1]; 1.0 μM): 2%
- HCT116 cell viability after drug treatment for 48 hours ([1]; 10 μM): 6%
- RTV11 ([2]; D2, 6, 10): 25.3 ± 14.8
- T11/C11 (%) ([2]; D2, 6, 10): 62.7%
- Animal body-weight (g_) End ([2]; D2, 6, 10, end (Day 11)): 19.2 ± 0.9 g
- Animal body-weight (g_) Start ([2]; D2, 6, 10, start): 21.0 ± 1.6 g
- MTD (Maximum Toxicity Dosage) ([3]; NCI-H446 nude mice, i.v., 6 administrations): 10 mg/kg
- animal death ([3]; WQ1001 40 mg/kg Group, topotecan 10 mg/kg Group, to D22): no animal death appeared
- tumor growth ([3]; WQ1001 10, 20 and 40 mg/kg, topotecan 10 mg/kg, 6 administrations i.v.): significantly inhibited tumor growth
- body weight change at the end of test ([3]; end of test (D22), WQ1001 40 mg/kg Group, topotecan 10 mg/kg Group): decreased significantly
- RTV22 [3, 9]: 10.7 ± 4.8
- T22/C22 (%) [3, 9]: 49.3%
- Animal body-weight (g_) End ([3]; topotecan 10 mg/kg i.v., D0, 4, 7, 11, 14, 17, end (D22)): 16.4 ± 1.5 g
- Animal body-weight (g_) Start ([3]; topotecan 10 mg/kg i.v., D0, 4, 7, 11, 14, 17, start): 17.6 ± 1.2 g
- H446 cell viability after drug treatment for 48 hours ([4]; H446 cells, 0.1 μM, 48 hours): 73%
- H446 cell viability after drug treatment for 48 hours ([4]; H446 cells, 1.0 μM, 48 hours): 50%
- H446 cell viability after drug treatment for 48 hours ([4]; H446 cells, 10 μM, 48 hours): 25% and 23%
- Cancer cell viability [4, 10]: >30%
- MDAMB231 cell viability after drug treatment ([5]; 0.1 μM): 68%
- MDAMB231 cell viability after drug treatment ([5]; 1.0 μM): 50%
- MDAMB231 cell viability after drug treatment ([5]; 10 μM): 23%
- Water-solubility (Water-solubility): 1000 µg/mL
- Lactone ring stability [6]: <50%

- Animal body-weight (g_) End ([7]; D0, 3, 7, 10, 14, 17, end): 18.7 ± 1.7 g
- Animal body-weight (g_) End ([8]; D0, 3, 7, 10, 14, 17, end): 20.6 ± 1.4 g
- Animal body-weight (g_) Start ([8]; D0, 3, 7, 10, 14, 17, start): 19.0 ± 0.8 g
- solubility (Water-solubility): 1000 µg/mL (≈ 1700 µM)
- Lactone ring stability [6]: <50%
Compound: CCc1c2c(nc3ccc(OC(=O)N4CCC(N5CCCCC5)CC4)cc13)-c1cc3c(c(=O)n1C2)COC(=O)[C@]3(O)CC [irinotecan, Irinotecan]
- viability at 10 µM [4, 11]: > 30%
- RTV22 ([7]; D0, 3, 7, 10, 14, 17): 4.9 ± 1.3
- RTV22 ([8]; D0, 3, 7, 10, 14, 17): 1.9 ± 0.4

Compound: COc1cc([C@@H]2c3cc4c(cc3[C@@H](O[C@@H]3O[C@@H]5CO[C@@H](C)O[C@H]5[C@H](O)[C@H]3O)[C@H]3COC(=O)[C@H]23)OCO4)cc(OC)c1O [etoposide]
- viability at 0.1 µM ([1]; HCT-116, 48 h, 0.1 μM): 102%
- viability at 1 µM ([1]; HCT-116, 48 h, 1.0 μM): 89%
- viability at 10 µM ([1]; HCT-116, 48 h, 10 μM): 29%
- viability at 0.1 µM [4, 12]: 95%
- viability at 1 µM [4, 13]: 73%
- viability at 10 µM [4, 14]: 47%

Compound: CC[C@@]1(O)C(=O)OCc2c1cc1n(c2=O)Cc2cc3cc(O)ccc3nc2-1 [10-hydroxyl CPT, 10-Hydroxy-CPT (SN22)]
- viability at 0.1 µM ([1]; HCT-116, 0.1 μM, 48 hours): 15%
- viability at 1 µM ([1]; HCT-116, 1.0 μM, 48 hours): 1%
- viability at 10 µM ([1]; HCT-116, 10 μM, 48 hours): 9%
- viability at 0.1 µM [4, 12]: 72%
- viability at 1 µM [4, 13]: 30%
- viability at 10 µM [4, 14]: 24%
- viability at 0.1 µM [5]: 53%
- viability at 1 µM [5]: 40%
- viability at 10 µM [5]: 18%

Compound: CC[C@@]1(OP(=O)(O)O)C(=O)OCc2c1cc1n(c2=O)Cc2cc3ccccc3nc2-1 [CPT-20(S)-phosphate]
- Cancer cell viability [4, 10]: >85%
- Water-solubility (Water-solubility): >10000 µg/mL
- Lactone ring stability [6]: >90%

Compound: CCC(O)(C(=O)O)c1cc2n(c(=O)c1CO)Cc1cc3ccccc3nc1-2 (stereo not drawn) [carboxylate derivative]
- preferential binding to human serum album, relative to CPT (human serum album): 150 fold

Compound: CCc1c2c(nc3ccc(O)cc13)-c1cc3c(c(=O)n1C2)COC(=O)[C@]3(O)CC [SN38]
- viability at 0.1 µM ([1]; HCT-116, 48 h, 0.1 μM): 5%
- viability at 1 µM ([1]; HCT-116, 48 h, 1.0 μM): 2%
- viability at 10 µM ([1]; HCT-116, 48 h, 10 μM): 6%
- viability at 0.1 µM [4, 12]: 79%
- viability at 1 µM [4, 13]: 60%
- viability at 10 µM [4, 14]: 28%
- viability at 0.1 µM [5]: 48%
- viability at 1 µM [5]: 33%
- viability at 10 µM [5]: 20%

Compound: CC[C@@]1(O)C(=O)OCc2c1cc1n(c2=O)Cc2cc3ccccc3nc2-1 [CPT, Camptothecin]
- HCT116 cell viability after drug treatment for 48 hours ([1]; 1.0 μM): 82%
- viability at 0.1 µM ([1]; HCT-116, 48 h, 0.1 μM): 107%
- viability at 1 µM ([1]; HCT-116, 48 h, 1.0 μM): 76%
- viability at 0.1 µM [4, 12]: 65%
- viability at 1 µM [4, 13]: 51%
- viability at 10 µM [4, 14]: 24%
- viability at 10 µM [4, 11]: < 30%
- viability at 0.1 µM [5]: 13%
- viability at 1 µM [5]: 5%
- viability at 10 µM [5]: 3%
- solubility (Water-solubility): < 100 µg/mL
- Lactone ring stability [6]: <50%
